This note sets out measurements from article PMC5741723, “Residues His172 and Lys238 are Essential for the Catalytic Activity of the Maleylacetate Reductase from Sphingobium chlorophenolicum Strain L-1” (Scientific Reports, 2017).

Assay [1] has as its target T1, maleylacetate reductase (PcpE) (Sphingobium chlorophenolicum, UniProt F6F233).
T1 construct: gene Sphch_4020; full length, 352 residues; recombinant His6-tagged, tag kept (SPR); mutants in pET30a(+) NdeI/XhoI, E. coli BL21-AI
The assay can be described thus: inhibition of MA reduction, NADH loss at […] nm. The class given is biochemical. The settings on record: 360 µM NADH, 400 µM MA, 20 mM Tris-HCl pH 7.0.

Assay [2] addresses T1, maleylacetate reductase (PcpE). The experiment in a line: surface plasmon resonance. It counts as binding. The settings on record: PcpE immobilised by amine coupling; PBS-T, 5% DMSO, pH 7.4; n = 5. (In general: SPR reads the build-up and loss of mass on a sensor chip optically.)

T1 sequence (F6F233 entry or part of it): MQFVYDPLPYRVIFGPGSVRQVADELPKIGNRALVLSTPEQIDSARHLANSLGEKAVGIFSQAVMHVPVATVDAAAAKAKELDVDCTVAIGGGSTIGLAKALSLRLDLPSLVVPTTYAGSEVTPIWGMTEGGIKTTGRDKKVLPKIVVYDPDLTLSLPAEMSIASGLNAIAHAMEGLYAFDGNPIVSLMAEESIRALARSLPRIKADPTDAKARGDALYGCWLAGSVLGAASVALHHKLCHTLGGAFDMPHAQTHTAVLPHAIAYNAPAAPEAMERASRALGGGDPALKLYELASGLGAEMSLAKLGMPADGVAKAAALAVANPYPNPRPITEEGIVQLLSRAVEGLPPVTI

In the case of `Oc1c(Cl)c(Cl)c(Cl)c(Cl)c1Cl` [PCP, pentachlorophenol], in assay [1], the “% catalytic activity remaining at 5 μM” value is given as ~ 30%. For the same molecule, in assay [2], the Kd (usually the constant that tells how readily two partners part at equilibrium) was 12.8 ± 0.2 µM.
